# Measured values as given in PubChem BioAssay (NCI).
#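 Assay format: 96-well plates, 48-hour exposure. GI50: concentration for 50% inhibition of growth. Definition used: TGI = concentration required for complete inhibition of growth.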
# System: MDA-MB-468 breast
# Experiment: DTP human tumour cell line panel, 48 h
SMILES,GI50,TGI
COc1cc(N2C(=O)[C@H](Cl)C2c2ccc(SC)cc2)cc(OC)c1OC (some centres not stated),274 nM,> 100000 nM
Cc1ccccc1NC(=O)Nc1nc2ccc([N+](=O)[O-])cc2s1,2410 nM,5370 nM
Nc1cc2c3c(cccc3c1)C(=O)N(CCN1CCCC1)C2=O,4480 nM,21100 nM
OCc1ccc(N(Cc2ccc(F)cc2)Cc2ccc(F)cc2)cc1Cl,341 nM,1700 nM
CCCCCCCC(=O)OCC/C=C/C1OC1C1OC(=O)/C=C\C=C\C(=O)N(C(C)=O)C(=O)/C=C(/C)CCC2OC2C1OC(=O)NC(C)=O (configuration not stated),1210 nM,5600 nM
Cn1c(COC(=O)NCCn2ccnc2)nc2c(N3CCOCC3)nc(-c3ccccc3)nc21,360 nM,1460 nM
C[C@@H]1C[C@@H]([C@H](O)CC2CC(=O)NC(=O)C2)C(=O)[C@@H](C)C1,250 nM,4050 nM
COc1ccc2[nH]c(C(=O)N3CCN(C(=O)OCc4ccc5c(Cl)cc(Cl)c(O)c5n4)CC3)cc2c1,1260 nM,2780 nM
CCCCCCCC/C=C/CCCCCCCC1=NC(C)(C)CN1C(C)(C)CO,1730 nM,3230 nM
CC1=NN(c2cccc(Cl)c2)C(=O)/C1=C\c1cn(CC(O)CN2CCCCC2)c2ccccc12 (configuration not stated),10400 nM,25500 nM
COc1cc(C2CC(c3ccc(Nc4nc(NCCO)nc(NCCO)n4)cc3)=NN2c2cc(Cl)cc(Cl)c2)cc(OC)c1OC (configuration not stated),1680 nM,4480 nM
Cn1c(I)c(C#C[Si](C)(C)C)c(=O)n(C(=O)c2ccccc2)c1=O,1190 nM,2870 nM
O=C1NC(=NCCc2ccc(Cl)cc2)S/C1=C\c1ccc2ncccc2c1,7500 nM,> 25000 nM
C[C@@]1(F)[C@H](O)[C@@H](CO)O[C@H]1n1ccc(=O)[nH]c1=O,> 100000 nM,> 100000 nM
O=C1C=CC(=O)c2c(O)c(N3CCN(CCO)CC3)c(Cl)c(O)c21,286 nM,1000 nM
O=c1[nH]c(C2CCCN2)nc2c1oc1ccc(Cl)cc12 (configuration not stated),> 67400 nM,> 100000 nM
CC(C)(C)C[C@H]1N[C@@H](C(=O)NC2CCC(O)CC2)[C@H](c2cccc(Cl)c2F)[C@@]12C(=O)Nc1cc(Cl)ccc12 (some centres not stated),3540 nM,18500 nM
COc1ccc2c(c1)C(=O)c1c-2c(OCCCN(C)C)nc2cc(Br)ccc12,4680 nM,18000 nM

SMILES,GI50,TGI
COc1ccc(-n2c(=S)sc3c(Cl)nc(C)nc32)c(OC)c1,1980 nM,6570 nM
C/C(=N/NC(=S)Nc1ccccc1)c1nc2ccc(Cl)cc2[nH]1,181 nM,776 nM
O=C1c2cc3c(cc2-c2c1c1cc(F)c(F)cc1c(=O)n2CCCn1ccnc1)OCO3,20.5 nM,90.7 nM
COc1cc(/C=N/NC(=O)c2cnn3c2NC(c2ccccc2)C3)ccc1OC1CCCC1 (configuration not stated),524 nM,5710 nM
COc1ccc(-c2ccc(OC)c(OC)c2OC)cc1,377 nM,4370 nM
O=C(Nc1n[nH]c2cc(-c3cc(F)ccc3F)ccc12)C1CC1,6060 nM,> 25000 nM
COC1=CC(c2ccc[nH]2)=N/C1=C\c1[nH]c(C)c(C(=O)CCCCCCCCC(=O)O[C@H]2CC[C@H]3C4CCc5cc(O)ccc5C4CC[C@]23C)c1C (some centres not stated),560 nM,> 50000 nM
NC(N)=N/N=C\c1ccc(OCc2ccccc2)cc1,1230 nM,2640 nM
CCOC(=O)Nc1ccc2nc(-c3cscn3)[nH]c2c1,2440 nM,> 100000 nM
C#C[C@]1(O)CC[C@H]2[C@@H]3CC=C4c5sc(Nc6ccc(Cl)cn6)nc5CC[C@]4(C)[C@H]3CC[C@@]21C,7650 nM,> 100000 nM
Cn1c(COC(=O)NCCc2ccccn2)nc2c(N3CCOCC3)nc(Cl)nc21,1560 nM,3770 nM
CN(C)CCC(=O)Nc1ccc(-n2cc(-c3cccc(NC(=S)Nc4cccc(-c5cn(-c6ccc(NC(=O)CCN(C)C)cc6)nn5)c4)c3)nn2)cc1,4740 nM,22700 nM
Cc1cccc(N2C(=O)/C(=C/C(Cl)=C/c3ccc([N+](=O)[O-])cc3)SC2=S)c1C,1690 nM,4250 nM
O=C1C(=O)c2c(nc3ccc(C(F)(F)F)cn23)-c2ccccc21,234 nM,560 nM
C/C(=C(/c1ccc(O)cc1)c1ccc(OCCN(C)C)cc1)c1ccc(Cl)cc1,13400 nM,31900 nM
CCCCNC(c1ccc(Cl)cc1)C(O)c1ccc(Cl)cc1 (configuration not stated),1690 nM,3300 nM
O=C(NCc1ncc[nH]1)c1ccc(-c2nc3ccc4[nH]ncc4c3c3c2CCCC3)cc1,640 nM,1850 nM
CCN(CC)C(=S)SSC(C)C,17300 nM,45800 nM
